Results: patent EP1354870A1, “DIHYD[…]” (CONSEJO SUPERIOR DE INVESTIGACIONES CIENTIFICAS, priority 2000, dated 2002)

Target: T1, dihydroceramide desaturase (Rattus norvegicus, UniProt Q5XIF5)
T1 construct: from tissue; host or cells: rat liver microsomes
T1 sequence (Q5XIF5 1-323): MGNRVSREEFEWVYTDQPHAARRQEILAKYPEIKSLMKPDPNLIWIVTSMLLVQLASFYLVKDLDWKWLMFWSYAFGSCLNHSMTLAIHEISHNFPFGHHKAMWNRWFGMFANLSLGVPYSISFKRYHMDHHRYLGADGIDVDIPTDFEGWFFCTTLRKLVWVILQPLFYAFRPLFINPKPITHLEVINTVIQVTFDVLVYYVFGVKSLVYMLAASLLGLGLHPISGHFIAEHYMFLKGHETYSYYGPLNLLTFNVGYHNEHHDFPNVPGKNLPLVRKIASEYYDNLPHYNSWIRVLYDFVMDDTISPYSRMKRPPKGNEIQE
Assay: Inhibitory activity on dihydroceramide desaturase in rat liver microsomes (GC-MS quantification of the desaturated product)
Type: biochemical
Details: substrate N-octanoyldihydrosphingosine 10 nmoles, NADH, 37°C for 30 minutes, without preincubation, effect dose-dependent
Method: The inhibitory activity of the type I compounds that is claimed in this patent was tested on rat liver microsomes, prepared as described in [Michel, C. van Echten-Deckert, G.; Rother, J.; Sandhoff, K.; Wang, E.; Merrill, A. H. J. Biol. Chem. 1997, 272, 22432-22437]. The dihydroceramide desaturase activity was determined according to the procedure described in Michel, C. van Echten-Deckert, G.; Rother, J.; Sandhoff, K.; Wang, E.; Merrill, A. H. J. Biol. Chem. 1997, 272, 22432-22437, with the following modifications: compound la in increasing doses of 0, 0.6, 1.25, 2.5, 5 and 10 nmoles, was solubilized in BSA-ethanol 9:1 (100µl) and to the resulting solution 10 nmoles of substrate dissolved in 10µl of ethanol were added. To this solution was added a total of 0.3 mg of the microsomal suspension containing the desaturase, and 30 µl of a […] solution of NADH in 0.1M phosphate buffer, pH 7.5. The suspension was incubated at 37°C for 30 minutes and the reactions were stopped by adding 0.5 mL of chloroform containing 1 nmol of N-hexanoylsphingosine as an internal standard for quantification. Repeated lipid extractions with chloroform were carried out (2 x 250 µl) and the combined organic extracts were evaporated to dryness under a stream of Nitrogen. The resulting residue was treated with 50 µl of bis-trimethylsilyltrifluoroacetamide at 25°C for 60 minutes. […]

CCCCCCCCCCCCCC1=C(C(O)C(CO)NC(=O)CCCCCCC)C1 (single isomer, unassigned) [la]
IC50: 52 nM
